Consider 18 molecules from patent US20230159510A1, “NOVEL PRMT5 INHIBITORS” (AMGEN INC., priority 2020, published 2023).

The structures appear in SMILES notation. pIC50: −log10 of the molar value. Where only a bound is given, the exact number is not on record here.

Broadly, the Ki is a measure of affinity in units of concentration, obtained from inhibition or displacement. Usually pIC50 stands for the IC50 on a negative log10 scale, so that one unit is a factor of ten.

One test addresses PRMT5/MEP50 (Homo sapiens, UniProt O14744). In words: MTase-Glo methyl transferase assay, Method A (Histone H4 peptide, 1 µM MTA, 24 h pre-incubation). The test is classed as biochemical. Also on record: made in house. The conditions noted are these: read-out: PRMT5 MTase Glo Ki (nM, Meth. A). In short, it runs like this:
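PRMT5/MEP50 (10 nM) pre-incubated 24 h with compound, 5 µM SAM and 1 µM MTA, then reaction started with 1 µM Histone H4 (1-21) peptide and run 2 h at room temperature in Tris pH 8.0 buffer. SAH formed detected by MTase-Glo luminescence; IC50 and KI from dose-response curves.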

A further test deals with HCT116 WT cells. Briefly: HCT116 proliferation assay, WT cells (CellTiter-Glo, 6 days). The test is classed as cell-based. The conditions noted are these: Homo sapiens, HCT-116, 144 h, read-out: Prolif_HCT116-WT IC50. In a few lines: (§1)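 RPMI 1640/10% FBS; overnight attachment at 37° C, 5% CO2; 8–9-pt 1:3 titration, top 1 or 10 µM; DMSO ctrl; luminescence readout.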
In general terms: Cellular ATP, detected with luciferase, serves as a proxy for viable cell number.

Another test deals with HCT116 MTAP null cells. In words: HCT116 proliferation assay, MTAP null cells (CellTiter-Glo, 6 days). Particulars: HCT116-MTAP null, 144 h, read-out: Protif_ HCT116-MTAP null IC50. It is filed as cell-based. In short, it runs like this:
as §1

PRMT5/MEP50, sequence (O14744 whole entry): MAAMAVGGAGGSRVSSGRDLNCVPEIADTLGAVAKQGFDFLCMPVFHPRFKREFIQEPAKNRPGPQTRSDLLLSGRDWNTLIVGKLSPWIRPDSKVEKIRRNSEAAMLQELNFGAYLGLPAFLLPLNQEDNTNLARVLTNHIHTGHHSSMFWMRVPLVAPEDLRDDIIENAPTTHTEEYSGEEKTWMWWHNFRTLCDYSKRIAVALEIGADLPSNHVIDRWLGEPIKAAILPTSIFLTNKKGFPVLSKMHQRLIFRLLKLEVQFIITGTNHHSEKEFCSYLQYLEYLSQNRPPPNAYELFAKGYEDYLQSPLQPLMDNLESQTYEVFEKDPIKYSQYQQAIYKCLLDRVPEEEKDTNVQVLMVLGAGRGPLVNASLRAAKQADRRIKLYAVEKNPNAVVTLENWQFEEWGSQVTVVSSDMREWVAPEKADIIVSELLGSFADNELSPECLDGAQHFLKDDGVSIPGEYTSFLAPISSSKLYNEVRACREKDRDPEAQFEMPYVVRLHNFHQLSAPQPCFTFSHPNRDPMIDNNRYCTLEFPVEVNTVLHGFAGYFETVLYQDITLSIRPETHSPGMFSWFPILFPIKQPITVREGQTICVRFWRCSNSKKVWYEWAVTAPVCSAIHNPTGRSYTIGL
PRMT5/MEP50, sequence (Q9BQA1 whole entry partner): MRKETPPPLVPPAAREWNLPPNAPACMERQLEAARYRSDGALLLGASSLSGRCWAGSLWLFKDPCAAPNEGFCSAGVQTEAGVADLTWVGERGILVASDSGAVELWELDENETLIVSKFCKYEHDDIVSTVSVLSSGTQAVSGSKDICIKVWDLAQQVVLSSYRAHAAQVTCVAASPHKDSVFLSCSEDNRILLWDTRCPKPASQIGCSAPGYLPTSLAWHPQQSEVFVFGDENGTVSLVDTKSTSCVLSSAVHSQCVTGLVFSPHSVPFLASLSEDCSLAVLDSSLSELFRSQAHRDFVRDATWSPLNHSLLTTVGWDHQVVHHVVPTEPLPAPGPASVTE

`C[C@H](c1ncccn1)N(Cc1ccc(C#N)cn1)C(=O)c1ccc2nc(N)c(Br)cc2c1` [Example 417, 2-amino-3-bromo-N-((5-cyano-2-pyridinyl)methyl)-N-((1R)-1-(2-pyrimidinyl)ethyl)-6-quinolinecarboxamide]: the Ki at PRMT5/MEP50 was 0.33 nM. Further, the results for the pIC50 in the test with HCT116 WT cells and in the test on HCT116 MTAP null cells were less than 5.00 and 6.82, respectively.

In the case of `Cc1cc2cc(C(=O)N(Cc3ccc(C#N)cn3)[C@H](C)c3ncccn3)ncc2nc1N` [Example 418, 2-amino-N-((5-cyano-2-pyridinyl)methyl)-3-methyl-N-((1R)-1-(2-pyrimidinyl)ethyl)-1,7-naphthyridine-6-carboxamide], the inhibition constant Ki on PRMT5/MEP50 was 0.27 nM. Further, the pIC50 with HCT116 WT cells is less than 5.00; in the test with HCT116 MTAP null cells, 6.30.

In the case of `C[C@H](c1ncccn1)N(Cc1ccc(C(F)(F)F)cn1)C(=O)c1cc2cc(Br)c(N)nc2cn1` [Example 419, 2-amino-3-bromo-N-((1R)-1-(2-pyrimidinyl)ethyl)-N-((5-(trifluoromethyl)-2-pyridinyl)methyl)-1,7-naphthyridine-6-carboxamide], the Ki at PRMT5/MEP50 worked out at 0.16 nM. The pIC50 with HCT116 WT cells is less than 5.00; in the test on HCT116 MTAP null cells, 6.57.

On to `C[C@H](c1ncccn1)N(Cc1ccc(C(F)(F)F)cn1)C(=O)c1cnc2nc(N)c(Cl)cc2c1` [Example 420, 7-amino-6-chloro-N-((1R)-1-(2-pyrimidinyl)ethyl)-N-((5-(trifluoromethyl)-2-pyridiny1)methyl)-1,8-naphthyridine-3-carboxamide], for which, at PRMT5/MEP50, the Ki came out at 0.18 nM. Besides, the pIC50 in the test with HCT116 WT cells was 5.46; with HCT116 MTAP null cells it was 6.65.

Take `Cc1cc2cc(C(=O)N(Cc3ccc(C#N)cn3)[C@@H](c3ncccn3)C3CC3)c(F)cc2nc1N` [Example 421, 2-amino-N-((5-cyano-2-pyridinyl)methyl)-N-((R)-cyclopropyl(2-pyrimidinyl)methyl)-7-fluoro-3-methyl-6-quinolinecarboxamide]: the Ki on PRMT5/MEP50 came to 0.54 nM. Moreover, the negative logarithm of the IC50 (pIC50) in the test with HCT116 WT cells is 5.95; in the test with HCT116 MTAP null cells it was 7.25.

Regarding `C[C@H](c1ncccn1)N(Cc1ccc(C(F)(F)F)cn1)C(=O)c1cc2cc(Cl)c(N)nc2cn1` [Example 422, 2-amino-3-chloro-N-((1R)-1-(2-pyrimidinyl)ethyl)-N-((5-(trifluoromethyl)-2-pyridinyl)methyl)-1,7-naphthyridine-6-carboxamide], on PRMT5/MEP50, the Ki was 0.2 nM. Further, the pIC50 in the test on HCT116 WT cells was less than 5.00; in the test with HCT116 MTAP null cells it was 6.44.

With `Cc1cc2cc(C(=O)N(Cc3ccc(C#N)cn3)[C@@H](c3ncccn3)C3CC3)ccc2nc1N` [Example 423, 2-amino-N-((5-cyano-2-pyridinyl)methyl)-N-((R)-cyclopropyl(2-pyrimidinyl)methyl)-3-methyl-6-quinolinecarboxamide], the Ki at PRMT5/MEP50 was found to be 0.07 nM. The pIC50 was 5.74 with HCT116 WT cells and 7.27 with HCT116 MTAP null cells.

Take `C[C@H](c1ncccc1F)N(Cc1ccc(Br)nn1)C(=O)c1cnc2nc(N)c(Br)cc2c1` [Example 424, 7-amino-6-bromo-N-((6-bromo-3-pyridazinyl)methyl)-N-((1R)-1-(3-fluoro-2-pyridinyl)ethyl)-1,8-naphthyridine-3-carboxamide]: the Ki at PRMT5/MEP50 turned out to be 0.61 nM. Besides, the pIC50 in the test with HCT116 WT cells was 5.04; with HCT116 MTAP null cells, 6.50.

On to `N#Cc1ccc(CN(C(=O)c2cnc3nc(N)c(Br)cc3c2)[C@@H](c2ncccn2)C2CC2)nc1` [Example 425, (R)-7-amino-6-bromo-N-((5-cyanopyridin-2-yl)methyl)-N-(cyclopropyl(pyrimidin-2-yl)methyl)-1,8-naphthyridine-3-carboxamide], for which, at PRMT5/MEP50, the Ki came to 0.68 nM. For the same molecule, the pIC50 in the test on HCT116 WT cells was 5.66; in the test with HCT116 MTAP null cells, 6.42.

Take `C[C@H](c1ncccn1)N(Cc1ccc(OC2COC2)cn1)C(=O)c1cnc2nc(N)c(Br)cc2c1` [Example 426, 7-amino-6-bromo-N-((5-(3-oxetanyloxy)-2-pyridinyl)methyl)-N-((1R)-1-(2-pyrimidinyl)ethyl)-1,8-naphthyridine-3-carboxamide]: the Ki at PRMT5/MEP50 was determined as 0.47 nM. For the same molecule, the values for the pIC50 with HCT116 WT cells and with HCT116 MTAP null cells were less than 5.00 and 6.02, respectively.

`Cc1cc2cc(C(=O)N(Cc3ccc(OC4COC4)cn3)[C@H](C)c3ncccn3)ccc2nc1N` [Example 427, 2-amino-3-methyl-N-((5-(3-oxetanyloxy)-2-pyridinyl)methyl)-N-((1R)-1-(2-pyrimidinyl)ethyl)-6-quinolinecarboxamide]: the Ki at PRMT5/MEP50 amounted to 0.1 nM. The pIC50 was 5.37 in the test on HCT116 WT cells and 6.82 with HCT116 MTAP null cells.

Consider `Cc1cc2cc(C(=O)N(Cc3ccc(C(F)(F)F)cn3)[C@H](C)c3ccc(Cl)cn3)ccc2nc1N` [Example 428, 2-amino-N-((1R)-1-(5-chloro-2-pyridinyl)ethyl)-3-methyl-N-((5-(trifluoromethyl)-2-pyridinyl)methyl)-6-quinolinecarboxamide], for which, at PRMT5/MEP50, the Ki is 0.08 nM. The pIC50 with HCT116 WT cells is 5.43; in the test with HCT116 MTAP null cells, 6.73.

Take `Cc1cc2cc(C(=O)N(Cc3ccc(C(F)(F)F)cn3)[C@H](C)c3ncccn3)c(F)cc2nc1N` [Example 429, 2-amino-7-fluoro-3-methyl-N-((1R)-1-(2-pyrimidinyl)ethyl)-N-((5-(trifluoromethyl)-2-pyridinyl)methyl)-6-quinolinecarboxamide]: the Ki at PRMT5/MEP50 stood at 0.91 nM. Moreover, the results for the pIC50 in the test on HCT116 WT cells and in the test with HCT116 MTAP null cells were 6.22 and 7.41, respectively.

Take `Cc1cc2cc(C(=O)N(Cc3ccc(C(F)(F)F)cn3)C3(c4ncccn4)CC3)ccc2nc1N` [Example 430, 2-amino-3-methyl-N-(1-(2-pyrimidinyl)cyclopropyl)-N-((5-(trifluoromethyl)-2-pyridinyl)methyl)-6-quinolinecarboxamide]: the Ki on PRMT5/MEP50 was found to be 0.42 nM. Moreover, the pIC50 with HCT116 WT cells is less than 5.00; in the test with HCT116 MTAP null cells, 6.30.

Consider `Cc1cc2cc(C(=O)N(Cc3ccc(C#N)cn3)[C@H](C)c3ncc(F)cc3F)ccc2nc1N` [Example 431, 2-amino-N-((5-cyano-2-pyridinyl)methyl)-N-((1R)-1-(3,5-difluoro-2-pyridinyl)ethyl)-3-methyl-6-quinolinecarboxamide], for which the Ki on PRMT5/MEP50 is 0.07 nM. The pIC50 is 5.49 in the test with HCT116 WT cells and 6.76 in the test with HCT116 MTAP null cells.

Consider `Cc1cc(N)nc2ccc(C(=O)N(Cc3ccc(C(F)(F)F)cn3)[C@H](C)c3ncccn3)cc12` [Example 432, 2-amino-4-methyl-N-((1R)-1-(2-pyrimidinyl)ethyl)-N-((5-(trifluoromethyl)-2-pyridinyl)methyl)-6-quinolinecarboxamide], for which, on PRMT5/MEP50, the Ki was determined as 0.57 nM. The pIC50 in the test on HCT116 WT cells was 6.96; in the test with HCT116 MTAP null cells it was 7.62.

As to `C[C@H](c1ncccn1)N(Cc1ccc(C(F)(F)F)cn1)C(=O)c1ccc2nc(N)cc(Cl)c2c1` [Example 433, 2-amino-4-chloro-N-((1R)-1-(2-pyrimidinyl)ethyl)-N-((5-(trifluoromethyl)-2-pyridinyl)methyl)-6-quinolinecarboxamide], the Ki on PRMT5/MEP50 was found to be 1.26 nM. Also, the pIC50 is 5.93 in the test on HCT116 WT cells and 6.09 in the test on HCT116 MTAP null cells.

Turning to `C[C@H](c1ncccn1)N(Cc1ccc(C(F)(F)F)cn1)C(=O)c1ccc2nc(N)c(Br)cc2c1` [Example 434, 2-amino-3-bromo-N-((1R)-1-(2-pyrimidinyl)ethyl)-N-((5-(trifluoromethyl)-2-pyridinyl)methyl)-6-quinolinecarboxamide], the Ki on PRMT5/MEP50 is less than 0.1 nM. For the same molecule, the pIC50 was 5.62 with HCT116 WT cells and 7.31 with HCT116 MTAP null cells.
